Reference: patent US10618885B2, “Compounds that activate autophagy” (Macau University of Science and Technology, priority 2018, dated 2020)
Like-named read-outs stand apart in the source and are kept apart here.

Columns and labels:
Assay type in all cases: cell-based
[1] = tested on: HeLa cells; assay: Annexin V cell death analysis by flow cytometry, with or without wortmannin; details: 24 hours; for compound-mediated cell death on blocking of autophagy by wortmannin: 5 μM compound plus 1 μM wortmannin; for percentage of cell death: 5 μM compound, annexin V staining, without wortmannin
Experimental: Apoptosis was detected by Annexin V staining kit (BD Biosciences, San Jose, Calif., USA). In brief, cells were exposed to the indicated concentrations of […] for 24 hours. Cells were then harvested and analyzed by flow cytometry using FITC-Annexin V and Propidium Iodide staining according to the manufacturer's instructions. Apoptotic cells were quantitatively counted by a flow cytometer (BD FACSAria III, San Jose, Calif., USA). Data acquisition and analysis were performed with CellQuest (BD Biosciences, San Jose, Calif., USA) from triple independent experiments.
To investigate whether the autophagy induced by compounds 2a, 2b, 3a, and 4a contributes to cell death, Annexin V cell death analysis was conducted. HeLa cells treated with these compounds (5 μM) in the presence or absence of 1 μM of wortmannin for 24 hours were assayed by flow cytometry after annexin V staining. Bar charts of FIGS. 5C and 5E represent the quantitation of cell death (%).

[2] = tested on: LC3 conversion (LC3-I to LC3-II) in HeLa cells; assay: Western blot for autophagic marker LC3 conversion in HeLa cells; details: 24 hours, three concentrations, normalised to β-actin
Experimental: After drug treatment, adherent and floating cells were lysed with RIPA lysis buffer. Protein concentrations were determined using the Bio-Rad protein assay (Bio-Rad Laboratories, Inc., Hercules, Calif., USA). The cell lysates of samples were subjected to electrophoresis on SDS polyacrylamide gels and transferred to Hybond enhanced chemiluminescence nitrocellulose membranes (Amersham Biosciences, Piscataway, N.J.), which were then blocked with 5% non-fat dry milk protein for 1 hour. Membranes were then incubated with the indicated primary antibodies overnight at 4° C. The binding of the antibody was visualized by peroxidase-coupled secondary antibody using the ECL (enhanced chemiluminescence) Western Blotting Detection Reagents (Invitrogen, Paisley, Scotland, UK). Band intensities were quantified by using the software ImageJ (NIH, Bethesda, Md., USA).
The presence of the autophagy marker protein, LC3-II was determined in HeLa cells by western blot analysis. HeLa cancer cells were treated with dauricine (Dau) or compounds 2a-4b with three indicated concentrations for 24 hours. Cell lysates were analyzed by Western blot for LC3 conversion ([…]) and β-actin. The western blot was shown in FIGS. 4A, 4C, 4E, 4G, 4I, 4K, and 4M. LC3-II band intensities were quantified using densitometric analysis and normalised to β-actin. The results were shown in FIGS. 4B, 4D, 4F, 4H, 4J, 4L and 4N. Data are expressed as a fold change relative to the DMSO-treated negative control. Bars are representatives of three independent experiments. Error bars, SEM. *, P<0.05; **, P<0.01; ***, P<0.001.

[3] = tested on: HeLa cancer cells; assay: MTT cytotoxicity assay in HeLa cancer cells
Experimental: All test compounds were dissolved in DMSO (Dimethyl sulfoxide) at final concentrations of 50 mmol/L and stored at −20° C. before use. Cytotoxicity was assessed using the 3-(4, 5-dimethylthiazol-2-yl)-2, 5-diphenyltetrazolium bromide (MTT) (5.0 mg/ml) assay. Briefly, 4×10^3 cells were seeded per well in 96-well plates before drug treatment. After overnight culture, the cells were then exposed to different concentrations of test compounds (0.039-100 μmol/L) for 72 hours. Cells without drug treatment were used as control. Subsequently, MTT (10 μL) was added to each well and incubated at 37° C. for 4 hours followed by the addition of 100 μL solubilization buffer (10% SDS (Sodium dodecyl sulfate) in 0.01 mol/L HCl) and overnight incubation. A570 nm was determined from each well on the next day. The percentage of cell viability was calculated using the following formula: Cell viability (%)=Atreated/Acontrol×100. Data were obtained from triplication independent experiments.
FIG. 1 is a graph 100 showing cell viability of HeLa cells treated with dauricine, N-desmethyldauricine, and compounds 2a-4b. HeLa cancer cells in 96 well-plates were treated with 0 to 20 μM of dauricine (Dau), N-desmethyldauricine (NDau) and dauricine derivatives (2a-4b) for 72 hours. Cell cytotoxicity was then assessed using the 3-(4, 5-dimethylthiazol-2-yl)-2, 5-diphenyltetrazolium bromide (MTT) (5.0 mg/ml) assay. The IC50 values shown in FIG. 1 are mean values of three independent experiments.

[4] = tested on: GFP-LC3 stable HeLa cells; assay: Autophagy LC3 puncta detection in GFP-LC3 stable HeLa cells; details: 24 hours; for formation of GFP-LC3 puncta (fluorescence images): compared with untreated cells; for percentage of cells with GFP-LC3 puncta (dose dependence): three concentrations
Experimental: The detection of LC3 autophagic puncta was conducted using GFP-LC3 stable HeLa cancer cells as described below. In brief, compounds-treated GFP-LC3-HeLa cells on cover slips were fixed with 4% paraformaldehyde (Sigma) for 20 min at room temperature and then rinsed with PBS (phosphate-buffered saline). The coverslips were then mounted with FLUORSAVE™ mounting media (Calbiochem, San Diego, Calif., USA) for fluorescence imaging and the localization of LC3 autophagosomes were captured under the API Delta Vision Live-cell Imaging System (Applied Precision Inc., GE Healthcare Company, Washington, USA). To quantify autophagy, guidelines were followed to monitor autophagy, the percentage of cells with punctuate LC3 immunofluorescence staining was calculated by counting the number of the cells showing the increased punctuate pattern of LC3 fluorescence (≥10 dots/cell) in immunofluorescence-positive cells over the total number of cells in the same field. A minimum of 1000 cells from randomly selected fields were scored.
FIG. 2A-3H show identification of compounds 2a-4b with autophagic activities. GFP-LC3 puncta in compound-treated GFP-LC3-HeLa cells were detected. GFP-LC3 stable HeLa cells were treated with DMSO (−ve Ctrl) or the indicated concentrations of dauricine (Dau), N-desmethyldauricine (NDau) and dauricine derivatives (2a-4b) for 24 hours. Representative fluorescence images from the highest tested concentration of compound captured at 60× magnification were shown; scale bar, 15 μm. Bar charts represent the quantitation of autophagic cells. The percentages of autophagic cells were calculated as the number of cells with GFP-LC3 puncta (≥10 puncta/cell) divided by the total number of GFP-positive cells in the same field.

[5] = HeLa cancer cells, 72 hours, MTT, mean of three independent experiments, read-out: IC50 (cytotoxicity)

SMILES: COc1cc2c(cc1OC)C(Cc1ccc(Oc3cc(CC4c5cc(OC)c(OC)cc5CCN4C)ccc3OS(=O)(=O)c3ccc(C)cc3)cc1)N(C)CC2 (centres unmarked) [Compound 4a]
- compound-mediated cell death on blocking of autophagy by wortmannin [1]: significantly inhibited
- percentage of cell death [1]: markedly increased the percentage of cell death
- conversion of LC3-I to LC3-II (fold change relative to DMSO control) [2]: increased the conversion of LC3-I to LC3-II in a dose dependent manner
- IC50 [3, 5]: 6.1 µM

SMILES: COc1cc2c(cc1OC)C(Cc1ccc(Oc3cc(CC4c5cc(OC)c(OC)cc5CCN4C)ccc3OC(=O)c3ccco3)cc1)N(C)CC2 (centres unmarked) [Compound 3b]
- conversion of LC3-I to LC3-II (fold change relative to DMSO control) [2]: increased the conversion of LC3-I to LC3-II in a dose dependent manner

SMILES: COc1cc2c(cc1OC)C(Cc1ccc(Oc3cc(CC4c5cc(OC)c(OC)cc5CCN4C)ccc3OS(C)(=O)=O)cc1)N(C)CC2 (centres unmarked) [Compound 4b]
- conversion of LC3-I to LC3-II (fold change relative to DMSO control) [2]: increased the conversion of LC3-I to LC3-II in a dose dependent manner

SMILES: COc1cc2c(cc1OC)[C@@H](Cc1ccc(Oc3cc(C[C@H]4NCCc5cc(OC)c(OC)cc54)ccc3O)cc1)N(C)CC2 [N-desmethyldauricine, reference compound]
- formation of GFP-LC3 puncta (fluorescence images) [4]: increased formation of GFP-LC3 puncta
- percentage of cells with GFP-LC3 puncta (dose dependence) [4]: induced autophagic puncta in HeLa cells in a dose-dependent manner
- conversion of LC3-I to LC3-II (fold change relative to DMSO control) [2]: increased the conversion of LC3-I to LC3-II in a dose-dependent manner
- IC50 [3]: 15.8 µM

SMILES: COC[C@H]1OC(=O)c2coc3c2[C@@]1(C)C1=C(C3=O)[C@@H]2CCC(=O)[C@@]2(C)C[C@H]1OC(C)=O [wortmannin, reference compound]
- cytotoxic effect of wortmannin alone ([1]; wortmannin alone (1 μM)): no cytotoxic effect

SMILES: COc1cc2c(cc1OC)[C@@H](Cc1ccc(Oc3cc(C[C@@H]4c5cc(OC)c(OC)cc5CCN4C)ccc3O)cc1)N(C)CC2 [dauricine, reference compound]
- formation of GFP-LC3 puncta (fluorescence images) [4]: increased formation of GFP-LC3 puncta
- percentage of cells with GFP-LC3 puncta (dose dependence) [4]: induced autophagic puncta in HeLa cells in a dose-dependent manner
- conversion of LC3-I to LC3-II (fold change relative to DMSO control) [2]: increased the conversion of LC3-I to LC3-II in a dose-dependent manner
- IC50 ([3]; Homo sapiens, HeLa, 72 h, read-out: IC50 (cytotoxicity)): 15.5 µM

SMILES: CCN(CC)C(=O)Oc1ccc(CC2c3cc(OC)c(OC)cc3CCN2C)cc1Oc1ccc(CC2c3cc(OC)c(OC)cc3CCN2C)cc1 (centres unmarked) [Compound 2e]
- conversion of LC3-I to LC3-II (fold change relative to DMSO control) [2]: increased the conversion of LC3-I to LC3-II in a dose dependent manner

SMILES: COc1cc2c(cc1OC)C(Cc1ccc(Oc3cc(CC4c5cc(OC)c(OC)cc5CCN4C)ccc3OC(=O)c3ccccc3)cc1)N(C)CC2 (centres unmarked) [Compound 3a]
- compound-mediated cell death on blocking of autophagy by wortmannin [1]: significantly inhibited
- percentage of cell death [1]: markedly increased the percentage of cell death
- conversion of LC3-I to LC3-II (fold change relative to DMSO control) [2]: increased the conversion of LC3-I to LC3-II in a dose dependent manner
- IC50 [3, 5]: 6.44 µM

SMILES: CCN(C)C(=O)Oc1ccc(CC2c3cc(OC)c(OC)cc3CCN2C)cc1Oc1ccc(CC2c3cc(OC)c(OC)cc3CCN2C)cc1 (centres unmarked) [Compound 2d]
- conversion of LC3-I to LC3-II (fold change relative to DMSO control) [2]: increased the conversion of LC3-I to LC3-II in a dose dependent manner

SMILES: COc1cc2c(cc1OC)C(Cc1ccc(Oc3cc(CC4c5cc(OC)c(OC)cc5CCN4C)ccc3OC(=O)N(c3ccccc3)c3ccccc3)cc1)N(C)CC2 (centres unmarked) [Compound 2a]
- compound-mediated cell death on blocking of autophagy by wortmannin [1]: significantly inhibited
- percentage of cell death [1]: markedly increased the percentage of cell death
- conversion of LC3-I to LC3-II (fold change relative to DMSO control) [2]: increased the conversion of LC3-I to LC3-II in a dose dependent manner
- IC50 [3, 5]: 5.44 µM

SMILES: COc1cc2c(cc1OC)C(Cc1ccc(Oc3cc(CC4c5cc(OC)c(OC)cc5CCN4C)ccc3OC(=O)N(C)c3ccccc3)cc1)N(C)CC2 (centres unmarked) [Compound 2b]
- compound-mediated cell death on blocking of autophagy by wortmannin [1]: significantly inhibited
- percentage of cell death [1]: markedly increased the percentage of cell death
- conversion of LC3-I to LC3-II (fold change relative to DMSO control) [2]: increased the conversion of LC3-I to LC3-II in a dose dependent manner
- IC50 [3, 5]: 6.72 µM

SMILES: COc1cc2c(cc1OC)C(Cc1ccc(Oc3cc(CC4c5cc(OC)c(OC)cc5CCN4C)ccc3OC(=O)N3CCOCC3)cc1)N(C)CC2 (centres unmarked) [Compound 2g]
- conversion of LC3-I to LC3-II (fold change relative to DMSO control) [2]: increased the conversion of LC3-I to LC3-II in a dose dependent manner

SMILES: COc1cc2c(cc1OC)C(Cc1ccc(Oc3cc(CC4c5cc(OC)c(OC)cc5CCN4C)ccc3OC(=O)N(C)OC)cc1)N(C)CC2 (centres unmarked) [Compound 2f]
- conversion of LC3-I to LC3-II (fold change relative to DMSO control) [2]: increased the conversion of LC3-I to LC3-II in a dose dependent manner

SMILES: COc1cc2c(cc1OC)C(Cc1ccc(Oc3cc(CC4c5cc(OC)c(OC)cc5CCN4C)ccc3OC(=O)N(C)C)cc1)N(C)CC2 (centres unmarked) [Compound 2c]
- conversion of LC3-I to LC3-II (fold change relative to DMSO control) [2]: increased the conversion of LC3-I to LC3-II in a dose dependent manner
